From paper PMC12673918, “Design, Synthesis, and Selective Antiproliferative Activity of Indolizine Derivatives as Microtubule Destabilizers” (Archiv Der Pharmazie, 2025) come the findings set out here.

Format in all cases: cell-based
Assay [1] has as its system HGC‐27 (gastric carcinoma). Put plainly: Resazurin cell viability assay, HGC‐27. Conditions: 50 µM; for inhibition at 50 µM: Homo sapiens, HGC-27. The procedure: (§1) The tongue squamous cell carcinoma cell line CAL‐27 (ATCC CRL‐2095), breast carcinoma BT‐20 (ATCC HTB‐19), gastric carcinoma HGC‐27 (BCRJ Code 0310), and normal oral fibroblast OHMF (culture of fibroblasts derived from human oral healthy mucosa, approved by the Research Ethics Committee of the University of São Paulo, Campus of Ribeirão Preto, Brazil (with protocol number 049) were cultured in DMEM medium (DMEM, Sigma‐Aldrich, St. Louis, MO, USA) supplemented with 10% fetal bovine serum and a solution of penicillin (100 U/mL) and streptomycin (100 μg/mL). The cultures were maintained in a humidified incubator with 5% CO₂ at 37°C.
(§2) Cell viability was analyzed using the resazurin assay. For this, cells were seeded in 96‐well plates (1 × 10^3 cells per well) and incubated at 37°C with 5% CO₂ overnight for cell adhesion. Subsequently, the cells were treated with different compounds (0–50 µM) for 72 h. After treatment, the medium was replaced with phenol‐free DMEM medium (Sigma‐Aldrich) containing resazurin at a concentration of 44 µM (Sigma‐Aldrich). After incubation for 4 h at 37°C, fluorescence detection was performed (excitation 530/25 nm, emission 590/35 nm) using a microplate fluorimeter (Synergy 2, Biotek). Initial cell growth inhibition assays were performed in triplicate or quadruplicate, while IC50 determinations were conducted in triplicate. Data were plotted, and IC₅₀ values were determined by nonlinear regression using GraphPad Prism software 9.0.
(§3) ^a Cell viability was assessed using the resazurin assay after 72 hours of compound treatment. Fluorescence was measured to estimate % of cellular growth inhibition at 50 µM values, based on triplicate experiments.
(§4) ^b IC50 values were determined using the same resazurin-based assay, with fluorescence measurements performed after 72 hours of treatment. These experiments were carried out in triplicate.

The subject of another assay is BT‐20 (breast carcinoma). Put plainly: Resazurin cell viability assay, BT‐20. Particulars: 50 µM; for inhibition at 50 µM: Homo sapiens, BT-20. Here is the method: as §1, §2, §3, §4
In a further assay the test system is CAL‐27 (oral carcinoma). Put plainly: Resazurin cell viability assay, CAL‐27. Particulars: 50 µM; for inhibition at 50 µM: Homo sapiens, CAL-27. The procedure:
as §1, §2, §3, §4
For orientation: Resazurin is reduced to fluorescent resorufin, in cell work by metabolically active cells.

The next assay concerns the target T1, human P2X7 receptor (Homo sapiens, UniProt Q99572).
T1 construct: host or cells: HEK-293
T1 sequence (Q99572 1-595): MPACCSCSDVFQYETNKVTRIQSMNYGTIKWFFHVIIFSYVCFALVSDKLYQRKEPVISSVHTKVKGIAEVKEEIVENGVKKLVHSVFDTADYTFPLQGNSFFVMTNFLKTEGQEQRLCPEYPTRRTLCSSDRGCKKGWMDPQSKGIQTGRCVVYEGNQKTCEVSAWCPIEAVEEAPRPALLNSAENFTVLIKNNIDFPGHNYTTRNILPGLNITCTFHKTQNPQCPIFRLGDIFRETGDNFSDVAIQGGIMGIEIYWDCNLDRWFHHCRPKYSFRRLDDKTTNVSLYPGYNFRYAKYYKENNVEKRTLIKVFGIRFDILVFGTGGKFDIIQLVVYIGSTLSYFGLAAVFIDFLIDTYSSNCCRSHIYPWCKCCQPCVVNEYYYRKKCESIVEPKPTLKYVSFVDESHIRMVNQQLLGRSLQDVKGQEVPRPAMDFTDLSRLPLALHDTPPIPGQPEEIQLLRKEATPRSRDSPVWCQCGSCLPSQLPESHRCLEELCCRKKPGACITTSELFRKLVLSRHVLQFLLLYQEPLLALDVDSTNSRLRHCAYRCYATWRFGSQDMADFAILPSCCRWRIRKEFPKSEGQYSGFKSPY
Put plainly: YO‐PRO‐1 dye uptake assay for the P2X7 receptor. Particulars: for inhibition at 10 µM: P2X7, read-out: % Inhibition of P2X7R at 10 µM compounds’ concentration. Here is the method:
HEK‐293 cell lines stably expressing human P2X7 receptor (hP2X7R‐HEK‐293, B'SYS GmbH, Witterswil, Switzerland) were maintained in a 50/50 mix of Dulbecco's Modified Eagle Medium and F12 medium (DMEM/F12) supplemented with 9% (v/v) FCS, 1% (v/v) Penicillin/Streptomycin (10000 I.U./mL, 10 mg/mL in 0.9% NaCl) and G418 (100 µg/mL) at 37°C and 5% CO2. Cells were subcultured in cell culture 75 cm^2 flasks and split every 2‐4 days (1:3; 1:6; 1:10) once confluent.
HEK‐293 cell lines stably expressing human P2X7 receptor were seeded into black‐walled Nunc 96‐well optical bottom plates (Thermo Fisher Scientific) at 2.0–4.0 × 10^4 cells/well and incubated at 37°C for 24–48 h. After removing the culture medium, cells were washed with 100 µL wash buffer (280 mM Sucrose; 5.6 mM KCl; 0.5 mM CaCl2; 10 mM D‐Glucose; 10 mM HEPES; 5 mM N‐Methyl‐D‐glucamine (pH 7.4)). Then, 50 µL assay buffer (280 mM Sucrose; 6.4 mM KCl, 10 mM D‐Glucose; 10 mM HEPES; 5.0 mM N‐Methyl‐D‐glucamine (pH 7.4)) and 50 µL of antagonist dilutions (10^–5–10^–9 M) in assay buffer were added, and the cells were incubated at 37°C for 30 min. […] Finally, the uptake of YO‐PRO‐1 dye was recorded in a 9‐point‐well scan by following the fluorescence change using a FlexStation 3 Multi‐Mode Microplate Reader (Molecular Devices, San Jose, CA, USA, Software SoftMax7 Pro, endpoint protocol, well scan with reading pattern “fill scan”, λ ex = 485 nm, λ em = 535 nm). To determine the concentration‐dependent uptake inhibition by antagonists, the YO‐PRO‐1 uptake, expressed as RFU, was plotted against the concentrations of the compounds.

The target in the next assay is T2, human P2X4 receptor (Homo sapiens, UniProt Q99571).
T2 construct: expressed in transfected cells; host or cells: human 1321N1 astrocytoma cells
T2 sequence (Q99571 1-388): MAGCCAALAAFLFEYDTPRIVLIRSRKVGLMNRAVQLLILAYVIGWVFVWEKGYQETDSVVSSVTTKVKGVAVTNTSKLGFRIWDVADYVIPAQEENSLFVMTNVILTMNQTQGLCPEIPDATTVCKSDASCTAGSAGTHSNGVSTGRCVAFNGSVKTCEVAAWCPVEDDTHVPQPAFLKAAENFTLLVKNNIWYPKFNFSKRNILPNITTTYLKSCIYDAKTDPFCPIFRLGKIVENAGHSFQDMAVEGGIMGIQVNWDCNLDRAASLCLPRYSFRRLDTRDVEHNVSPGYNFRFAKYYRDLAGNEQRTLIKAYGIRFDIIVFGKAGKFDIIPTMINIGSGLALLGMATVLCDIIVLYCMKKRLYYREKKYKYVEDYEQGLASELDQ
The experiment in a line: Ca2+‐flux assay for the hP2X4 receptor. Particulars: read-out: % Inhibition of P2X4R at 10 µM compounds’ concentration. The procedure:
Human 1321N1 astrocytoma cells stably expressing the human P2X4 receptor (generated in‐house) were cultured in Dulbecco's Modified Eagle Medium supplemented with 9% (v/v) FCS, 1% (v/v) Penicillin/Streptomycin (10000 I.U./mL, 10 mg/mL in 0.9% NaCl) and puromycin (1 µg/mL) as a selection antibiotic at 37°C and 5% CO2. Cells were subcultured in cell culture 75 cm^2 flasks and split every 2–4 days (1:5; 1:6) once confluent.
1321N1 cells stably expressing human P2X4 receptor were seeded into black‐walled 96‐well plates (Thermo Fisher Scientific) at 2.5 × 10^4 cells/well and incubated at 37°C for 24–48 h. All test compounds were diluted in assay buffer solution (SBS: 135 mM NaCl; 5 mM KCl; 1 mM MgCl2.6 H2O; 1.8 mM CaCl2; 5.6 mM D‐Glucose; 10 mM HEPES, 0.1% (m/v) BSA, 0.05% (m/v) gelatine, 2.3 mM probenecid). The culture medium was removed, and 100 µL of 4 μM fluorescent Ca^2+ indicator Calbryte520AM in SBS was added and incubated at 37°C for 1 h. The dye solution was then removed, 100 µL of SBS solution and 50 µL of antagonist dilutions (10^–5–10^–9 M) in SBS were added, and the cells were incubated at room temperature for an extra 30 min. Finally, 50 µL of ATP (at a concentration of the previously determined EC50‐ value) was added by using FlexStation 3 Multi‐Mode Microplate Reader (Molecular Devices, San Jose, CA, USA, Software SoftMax7 Pro). The changes in intracellular Ca^2+ ion concentrations were monitored over 200 s (20 s baseline) by measuring the fluorescence signal at λ ex = 494 nm and λ em = 516 nm ([…] cut‐off). The concentration‐dependent decrease in Ca^2+‐flux, expressed as RFU, was plotted against the concentrations of the compounds.

The mark [2] stands for this setting: 72 hours, triplicate, read-out: % Cellular growth inhibition (at 50 µM) HGC-27 (supplement).
Where [3] appears, read: 72 hours, triplicate, read-out: % Cellular growth inhibition (at 50 µM) BT-20 (supplement).
Where [4] appears, read: 72 hours, triplicate, read-out: % Cellular growth inhibition (at 50 µM) CAL-27 (supplement).
Where [5] appears, read: 72 h, mean ± SD, n = 3, read-out: % Cellular growth inhibition (at 50 µM) HGC‐27.
Setting [6] is: 72 h, mean ± SD, n = 3, read-out: % Cellular growth inhibition (at 50 µM) BT‐20.
The mark [7] stands for this setting: 72 h, mean ± SD, n = 3, read-out: % Cellular growth inhibition (at 50 µM) CAL‐27.

Read-outs that look alike come from different tables or passages of the source.

On to “1‐(4‐methoxyphenyl)‐2‐(pyridin‐2‐yl)ethanone [Compound 4c]”, for which the “% Cellular growth inhibition (at 50 µM) HGC-27 (supplement)” value in assay [1] (72 hours, triplicate) is 14.1 ± 1.8%. Further, the “% Cellular growth inhibition (at 50 µM) BT-20 (supplement)” value with BT‐20 (breast carcinoma) (72 hours, triplicate) amounted to 13.7 ± 0.7%. The “% Cellular growth inhibition (at 50 µM) CAL-27 (supplement)” value in the assay on CAL‐27 (oral carcinoma) (72 hours, triplicate) turned out to be 9.0 ± 0.8%.
For “2‐(pyridin‐2‐yl)‐1‐(p‐tolyl)ethanone [Compound 4d]”, in that order: 17.3 ± 1.2%, 17.4 ± 0.6% and 12.6 ± 1.2%.
`O=C(NCC12CC3CC(CC(C3)C1)C2)c1cc(CCCNCCCO)ccc1Cl` [AZD9056, reference compound]: the IC50 on human P2X7 receptor (reference compound, same conditions, read-out: pIC50 at P2X7R (converted)) is 10.5 nM.
With `O=C(Cc1ccccn1)c1ccccc1` [Compound 4a, 1‐phenyl‐2‐(pyridin‐2‐yl)ethanone], the inhibition at 50 µM in assay [1] (setting [2]) turned out to be 2.4 ± 0.9%; in the assay with BT‐20 (breast carcinoma) (setting [3]), 7.5 ± 0.5%; in the assay on CAL‐27 (oral carcinoma) (setting [4]), 12.2 ± 2%.
For `O=C(Cc1ccccn1)c1ccc(Cl)cc1` [Compound 4b, 1‐(4‐chlorophenyl)‐2‐(pyridin‐2‐yl)ethanone], in that order: 16.1 ± 1.6%, 17.3 ± 1.8% and 11.4 ± 0.4%.
For `O=C(Cc1ccccn1)c1ccc(Cl)c(Cl)c1` [Compound 4e, 1‐(3,4‐dichlorophenyl)‐2‐(pyridin‐2‐yl)ethanone], in that order: 36.9 ± 0.8%, 43.3 ± 0.6% and 22.3 ± 1.3%.
For `COc1cc(C(=O)Cc2ccccn2)cc(OC)c1OC` [Compound 4f, 2‐(pyridin‐2‐yl)‐1‐(3,4,5‐trimethoxyphenyl)ethenone], the inhibition at 50 µM turned out to be 10 ± 0.7% in assay [1] (setting [5]), 19 ± 1.2% in the assay with BT‐20 (breast carcinoma) (setting [6]) and 20 ± 2.2% in the assay with CAL‐27 (oral carcinoma) (setting [7]).
As to `COc1ccc(CC(=O)c2cc(OC)c(OC)c(OC)c2)nc1` [Compound 5f, 2‐(5‐methoxypyridin‐2‐yl)‐1‐(3,4,5‐trimethoxyphenyl)ethenone], the inhibition at 10 µM stood at 5% at human P2X7 receptor and 4% at human P2X4 receptor. Further, the values for the inhibition at 50 µM (in assay [1] (setting [5]); with BT‐20 (breast carcinoma) (setting [6]); with CAL‐27 (oral carcinoma) (setting [7])) were 48 ± 4.9%, 52 ± 4.2% and 67 ± 2.7%, respectively.
For the compound `O=C(c1ccccc1)c1ccn2ccccc12` [Compound 6a, (Indolizin‐1‐yl)(phenyl)methanone], the inhibition at 50 µM in assay [1] (setting [5]) is 20 ± 1.1%; with BT‐20 (breast carcinoma) (setting [6]), 26 ± 1%; in the assay on CAL‐27 (oral carcinoma) (setting [7]) it was 15 ± 0.8%.
For `O=C(c1ccc(Cl)cc1)c1ccn2ccccc12` [Compound 6b, (4‐chlorophenyl)(indolizin‐1‐yl)methanone], the inhibition at 10 µM is 10% on human P2X7 receptor and -3% on human P2X4 receptor. Also, the inhibition at 50 µM was 26 ± 1% in assay [1] (setting [5]), 32 ± 0.8% with BT‐20 (breast carcinoma) (setting [6]) and 25 ± 0.4% in the assay with CAL‐27 (oral carcinoma) (setting [7]).
In the same order, the values of `Cc1ccc(C(=O)c2ccn3ccccc23)cc1` [Compound 6c, (Indolizin‐1‐yl)(p‐tolyl)methanone] are -8%, 3%, 20 ± 0.6%, 28 ± 1.3% and 22 ± 2.6%.
For `COc1ccc(C(=O)c2ccn3ccccc23)cc1` [Compound 6d, (Indolizin‐1‐yl)(4‐methoxyphenyl)methanone], in that order: 5%, 0%, 24 ± 1.1%, 28 ± 0.5% and 18 ± 0.6%.
`COc1cc(C(=O)c2ccn3ccccc23)cc(OC)c1OC` [Compound 6f, (Indolizin‐1‐yl)(3,4,5‐Trimethoxyphenyl)Methanone]: the inhibition at 50 µM in assay [1] (setting [5]) turned out to be 38 ± 1.6%; in the assay with BT‐20 (breast carcinoma) (setting [6]), 43 ± 0.5%; with CAL‐27 (oral carcinoma) (setting [7]) it was 57 ± 0.9%.
